ChEMBL document CHEMBL3588782, “Synthesis, antiribosomal and antibacterial activity of 4-O-glycopyranosyl paromomycin aminoglycoside antibiotics” (Medchemcomm, 2014)
In brackets after ≈: the same amount, converted by molar mass.

How the values were obtained:
[1] = target: Bacterial 70S ribosome; experiment: Inhibition of Mycobacterium smegmatis ribosome containing wild type ribosomal RNA A-site in rabbit reticulocyte lysates assessed as reduction in ribosome-mediated protein synthesis in presence of S-30 extracts by fire fly luciferase synthesis based cell-free translation assay; set-up: species or system Mycolicibacterium smegmatis
[2] = Inhibition of Mycobacterium smegmatis ribosome containing ribosomal RNA A-site G1491C mutant in rabbit reticulocyte lysates assessed as reduction in ribosome-mediated protein synthesis in presence of S-30 extracts by fire fly luciferase synthesis based cell-free translation assay; set-up: species or system Mycolicibacterium smegmatis
[3] = Inhibition of Mycobacterium smegmatis ribosome containing ribosomal RNA A-site G1491A mutant in rabbit reticulocyte lysates assessed as reduction in ribosome-mediated protein synthesis in presence of S-30 extracts by fire fly luciferase synthesis based cell-free translation assay; set-up: species or system Mycolicibacterium smegmatis
[4] = Inhibition of Mycobacterium smegmatis ribosome containing ribosomal RNA A-site A1408G mutant in rabbit reticulocyte lysates assessed as reduction in ribosome-mediated protein synthesis in presence of S-30 extracts by fire fly luciferase synthesis based cell-free translation assay; set-up: species or system Mycolicibacterium smegmatis
[5] = target: 80S Ribosome; experiment: Inhibition of human ribosome containing eukaryotic wild type ribosomal RNA A-site in rabbit reticulocyte lysates assessed as reduction in ribosome-mediated protein synthesis in presence of S-30 extracts by fire fly luciferase synthesis based cell-free translation assay
[6] = Inhibition of human ribosome containing eukaryotic ribosomal RNA A-site A1555G mutant in rabbit reticulocyte lysates assessed as reduction in ribosome-mediated protein synthesis in presence of S-30 extracts by fire fly luciferase synthesis based cell-free translation assay
[7] = Inhibition of human ribosome containing eukaryotic ribosomal RNA A-site Cyt14 allele in rabbit reticulocyte lysates assessed as reduction in ribosome-mediated protein synthesis in presence of S-30 extracts by fire fly luciferase synthesis based cell-free translation assay
[8] = system: Ribosome; experiment: Inhibition of ribosome-mediated protein synthesis in rabbit reticulocyte lysates in presence of S-30 extracts by fire fly luciferase synthesis based cell-free translation assay; set-up: species or system Oryctolagus cuniculus
[9] = system: Staphylococcus aureus; experiment: Antibacterial activity against methicillin-resistant Staphylococcus aureus isolate AG 038 by broth microdilution assay; assay type: functional
[10] = system: Staphylococcus aureus; experiment: Antibacterial activity against methicillin-resistant Staphylococcus aureus isolate AG 039 by broth microdilution assay; assay type: functional
[11] = system: Staphylococcus aureus; experiment: Antibacterial activity against methicillin-resistant Staphylococcus aureus isolate AG 042 by broth microdilution assay; assay type: functional
[12] = system: Staphylococcus aureus; experiment: Antibacterial activity against methicillin-resistant Staphylococcus aureus isolate AG 044 by broth microdilution assay; assay type: functional
[13] = system: Escherichia coli; experiment: Antibacterial activity against Escherichia coli isolate 006 by broth microdilution assay; assay type: functional
[14] = system: Escherichia coli; experiment: Antibacterial activity against Escherichia coli isolate 001 by broth microdilution assay; assay type: functional
[15] = system: Escherichia coli; experiment: Antibacterial activity against Escherichia coli isolate 055 by broth microdilution assay; assay type: functional
[16] = system: Escherichia coli; experiment: Antibacterial activity against Escherichia coli isolate 003 by broth microdilution assay; assay type: functional

Structure (SMILES)	IC50 [1] [µM]	IC50 [2] [µg/mL]	IC50 [3] [µg/mL]	IC50 [4] [µg/mL]	IC50 [5] [µM]	IC50 [6] [µg/mL]	IC50 [7] [µg/mL]	IC50 [8] [µg/mL]	MIC [9] [µg/mL]	MIC [10] [µg/mL]	MIC [11] [µg/mL]	MIC [12] [µg/mL]	MIC [13] [µg/mL]	MIC [14] [µg/mL]	MIC [15] [µg/mL]	MIC [16] [µg/mL]
NC[C@@H]1O[C@H](O[C@H]2[C@@H](O)[C@H](O[C@@H]3[C@@H](O)[C@H](N)C[C@H](N)[C@H]3O[C@H]3O[C@H](CO)[C@@H](O[C@@H]4O[C@H](CO)[C@H](O)[C@H](O)[C@H]4O)[C@H](O)[C@H]3N)O[C@@H]2CO)[C@H](N)[C@@H](O)[C@@H]1O	1.95	623.16	78.05	36.46	182	209.22	286.76	104.57	≥ 128	≥ 128	> 128	> 128	128 (≈ 165 µM)	> 128	> 128	> 128
NC[C@@H]1O[C@H](O[C@H]2[C@@H](O)[C@H](O[C@@H]3[C@@H](O)[C@H](N)C[C@H](N)[C@H]3O[C@H]3O[C@H](CO)[C@@H](OCCCc4ccccc4)[C@H](O)[C@H]3N)O[C@@H]2CO)[C@H](N)[C@@H](O)[C@@H]1O	0.273	210.73	51.26	14.52	67.9	105.68	268.57		2 (≈ 2.73 µM)	8 (≈ 10.9 µM)	4 (≈ 5.45 µM)	4 (≈ 5.45 µM)	8 (≈ 10.9 µM)	16 (≈ 21.8 µM)	16 (≈ 21.8 µM)	8 (≈ 10.9 µM)
NC[C@@H]1O[C@H](O[C@H]2[C@@H](O)[C@H](O[C@@H]3[C@@H](O)[C@H](N)C[C@H](N)[C@H]3O[C@H]3O[C@H](CO)[C@@H](O)[C@H](O)[C@H]3N)O[C@@H]2CO)[C@H](N)[C@@H](O)[C@@H]1O [PAROMOMYCIN]	0.0487	10.42	0.57	0.26	82.1	5.83	10.39	9.78	4 (≈ 6.5 µM)	> 256	> 256	4 (≈ 6.5 µM)	2 (≈ 3.25 µM)	16 (≈ 26 µM)	8 (≈ 13 µM)	8 (≈ 13 µM)
NC[C@@H]1O[C@H](O[C@H]2[C@@H](O)[C@H](O[C@@H]3[C@@H](O)[C@H](N)C[C@H](N)[C@H]3O[C@H]3O[C@H](CO)[C@@H](OCO[C@H]4O[C@H](CO)[C@@H](O)[C@H](O)[C@H]4O)[C@H](O)[C@H]3N)O[C@@H]2CO)[C@H](N)[C@@H](O)[C@@H]1O	0.384	200.3	33.45	17.16	29.8	96.03	130.61	43.14	64 (≈ 79.2 µM)	≥ 128	128 (≈ 158 µM)	64 (≈ 79.2 µM)	64 (≈ 79.2 µM)	≥ 128	≥ 128	≥ 128
NC[C@@H]1O[C@H](O[C@H]2[C@@H](O)[C@H](O[C@@H]3[C@@H](O)[C@H](N)C[C@H](N)[C@H]3O[C@H]3O[C@H](CO)[C@@H](O[C@H]4O[C@H](CO)[C@@H](O)[C@H](O)[C@H]4O)[C@H](O)[C@H]3N)O[C@@H]2CO)[C@H](N)[C@@H](O)[C@@H]1O	0.411	109.01	27.08	21.84	2.39	13.98	46.26	30.64	32 (≈ 41.1 µM)	32 (≈ 41.1 µM)	32 (≈ 41.1 µM)	16 (≈ 20.6 µM)	16 (≈ 20.6 µM)	128 (≈ 165 µM)	128 (≈ 165 µM)	128 (≈ 165 µM)
CN[C@@H]1[C@@H](O[C@H]2O[C@H](CO)[C@@H](N)[C@H](O)[C@H]2O)O[C@H]2C[C@@H](N)[C@@H](O[C@H]3[C@H](O)[C@@H](O)[C@H](N)C[C@@H]3N)O[C@@H]2[C@@H]1O [APRAMYCIN]	0.111	31.21	5	128.89	108	26.06	49.17	23.77	8 (≈ 14.8 µM)	8 (≈ 14.8 µM)	8 (≈ 14.8 µM)	16 (≈ 29.7 µM)	4 (≈ 7.41 µM)	16 (≈ 29.7 µM)	8 (≈ 14.8 µM)	8 (≈ 14.8 µM)
NC[C@@H]1O[C@H](O[C@H]2[C@@H](O)[C@H](O[C@@H]3[C@@H](O)[C@H](N)C[C@H](N)[C@H]3O[C@H]3O[C@H](CO)[C@@H](O[C@@H]4O[C@H](CO)[C@@H](O)[C@H](O)[C@@H]4O)[C@H](O)[C@H]3N)O[C@@H]2CO)[C@H](N)[C@@H](O)[C@@H]1O	0.591	297.39	51.48	27.91	70.2	85.7	90.35	47.64	≥ 128	≥ 128	≥ 128	≥ 128	64 (≈ 82.3 µM)	> 128	> 128	> 128
NC[C@@H]1O[C@H](O[C@H]2[C@@H](O)[C@H](O[C@@H]3[C@@H](O)[C@H](N)C[C@H](N)[C@H]3O[C@H]3O[C@H](CO)[C@@H](O[C@H]4O[C@H](CO)[C@@H](O)[C@H](O)[C@@H]4O)[C@H](O)[C@H]3N)O[C@@H]2CO)[C@H](N)[C@@H](O)[C@@H]1O	0.373	81.32	8.79	5.1	2.82	18.05	51.72	36.82	64 (≈ 82.3 µM)	≥ 128	> 128	32 (≈ 41.1 µM)	16 (≈ 20.6 µM)	> 128	> 128	≥ 128
NC[C@@H]1O[C@H](O[C@H]2[C@@H](O)[C@H](O[C@@H]3[C@@H](O)[C@H](N)C[C@H](N)[C@H]3O[C@H]3O[C@H](CO)[C@@H](O[C@H]4O[C@H](CO)[C@H](O)[C@H](O)[C@H]4O)[C@H](O)[C@H]3N)O[C@@H]2CO)[C@H](N)[C@@H](O)[C@@H]1O	0.707	118.67	18.68	12.01	2.87	14.95	35.63	23.75	64 (≈ 82.3 µM)	128 (≈ 165 µM)	64 (≈ 82.3 µM)	64 (≈ 82.3 µM)	32 (≈ 41.1 µM)	> 128	> 128	> 128
NC[C@@H]1O[C@H](O[C@H]2[C@@H](O)[C@H](O[C@@H]3[C@@H](O)[C@H](N)C[C@H](N)[C@H]3O[C@H]3O[C@H](CO)[C@@H](O[C@H]4O[C@H](CO)[C@@H](N)[C@H](O)[C@H]4O)[C@H](O)[C@H]3N)O[C@@H]2CO)[C@H](N)[C@@H](O)[C@@H]1O	0.154	32.79	6.07	7.06	0.438	3.62	18.95	19.59	4 (≈ 5.15 µM)	8 (≈ 10.3 µM)	8 (≈ 10.3 µM)	4 (≈ 5.15 µM)	2 (≈ 2.57 µM)	32 (≈ 41.2 µM)	32 (≈ 41.2 µM)	16 (≈ 20.6 µM)
NC[C@@H]1O[C@H](O[C@H]2[C@@H](O)[C@H](O[C@@H]3[C@@H](O)[C@H](N)C[C@H](N)[C@H]3O[C@H]3O[C@@H]4COC(CCc5ccccc5)O[C@H]4[C@H](O)[C@H]3N)O[C@@H]2CO)[C@H](N)[C@@H](O)[C@@H]1O (some centres undefined)	0.137	124.07	43.01	3.81	452	126.88	183.86		4 (≈ 5.47 µM)	8 (≈ 10.9 µM)	4 (≈ 5.47 µM)	16 (≈ 21.9 µM)	16 (≈ 21.9 µM)	32 (≈ 43.7 µM)	32 (≈ 43.7 µM)	32 (≈ 43.7 µM)
